# “Also recorded” adds a separate entry of the source.
# Legend:
# [1] = time to achieve matrix cross-linking of cord blood plasma; type: physicochemical, human
# Protocol: (§1) FIG. 2(a-b). Chemical characterization of cord blood plasma 3D culture model referred as InvitroWOMB (iWOMB).
# (§2) Referring to FIG. 2, cross-linking time was assessed by measuring the time necessary to achieve matrix cross-linking using three relevant cross-linkers of the blood coagulation process including thrombin (0-5 mg/ml) and CaCl2 (0-10 mg/ml). The stabilization effects of preventing fibrin degradation and stability improvement in the scaffold was assessed by surveying an antifibrinolytic agent such as tranexamic acid (0-5 mg/ml). The stability of the scaffold was studied by measuring each scaffold weight at day 0 and again measuring scaffold weight at the conclusion of a 3 week time period.
# [2] = scaffold stability: scaffold weight at day 0 and after 3 weeks; type: physicochemical, human; conditions: tranexamic acid in the range of 5 mg/ml (tested 0-5 mg/ml); 3 week period
# Protocol: as §1, §2
# control hu-MSC = test: hu-MSC growth assay with metformin, live cells counted by Trypan blue; type: cell-based, human
# From the text: (§3) FIG. 9(a-d). Precision capabilities. (a) Using a custom human antibody array we measured relative expression of cytokines and growth factors in cord plasma for scaffolds from subjects with Type 1 (T1D), Type 2 (T2D) and gestational diabetes (GDM). Bar graphs represent relative expression by densitometry compared to negative control (membrane background). (b) Hu-MSC from control, T1D, T2D and GDM donors (n=2-3/group) were uniformly plated (50K live cells/well) in stem cell media to collagen-coated, 24-well plates. Trypan blue was used to count live cells every 24 hours and growth was measured and compared. Bar graphs represent fold change from baseline to 72 hours; *p<0.05 by one-way ANOVA with Dunnett post-test, (c) Control hu-MSCs were treated with metformin at increasing doses (0, 25, 50 and 100 μM) and growth was followed as previously described. […] Bar graphs represent the number of cells/well remaining at 72 hours after initial plating of 20K cells/well.
# (§4) To determine whether iWOMB is a useful tool for precision-based assays, we used umbilical cord plasma and hu-MSC from control and diabetic pregnancy to identify diabetes-related differences in proteins in the DME and/or programmed cell fate. […] Using our customized antibody array as detailed above (FIG. 8), we compared relative expression of cytokines and growth factors in cord plasma protein. Just as fibrinogen levels are higher in cord plasma from diabetic pregnancies, so are other factors. Specifically, umbilical cord plasma cytokines (IL-6, IL-10), insulin like growth factor −1 (IGF-1) and hepatocyte growth factor (HGF) from Type 1 diabetic pregnancy (TID) are higher than in plasma from Type 2 (T2D) and gestational diabetes (GDM) (FIG. 9a). […] Every 24 hours cells were detached using 0.25% trypsin/EDTA and live cells were counted using Trypan blue staining and a hemocytometer. Live cells were recorded at each time point for […]. […] Every 24 hours cells were detached using 0.25% trypsin/EDTA and live cells were counted using Trypan blue and a hemocytometer. Live cells were recorded at each time point for 72 hours. […]
# GDM-exposed hu-MSC = test: as above; type: cell-based, human; conditions: 25 μM metformin; 20K cells/well; 72 hour cell counts
# From the text: as §3, §4
compound,measurement,setting,value
"[Ca+2].[Cl-].[Cl-] [CaCl2, calcium chloride]",cross-linking time,[1]; CaCl2 1.25 to 5 mg/ml (tested 0-10 mg/ml),fastest crosslinking
"NC[C@H]1CC[C@H](C(=O)O)CC1 [Tranexamic acid, tranexamic acid]",scaffold stability (prevention of fibrin degradation),[2],best improvement in scaffold stability
CN(C)C(=N)N=C(N)N [metformin],growth of control hu-MSC,"control hu-MSC; 25 μM metformin (level reported in umbilical cord blood), 20K cells/well, 72 hours",does not impair growth
same,hu-MSC cell growth (number of live cells over time),"control hu-MSC; normal/control hu-MSC, metformin 0, 25, 50, 100 uM, live cells counted every 24 h for 72 hours",impairs hu-MSC growth in a dose dependent manner; also recorded: dose-dependent decline in cell growth
same,growth of GDM exposed hu-MSC,GDM-exposed hu-MSC,increased growth; also recorded: improves
thrombin,cross-linking time,[1]; thrombin 0.5 to 5 mg/ml (tested 0-5 mg/ml),fastest crosslinking
